From patent US9359367B2, “Tetrahydroquinazolinone derivatives as PARP inhibitors” (Lupin Limited, priority 2012, dated 2016) come the findings set out here.

The target of this assay is T1, PARP1 (Homo sapiens, UniProt P09874).
T1 construct: purchased BPS Bioscience
The assay can be described thus: PARP1 Biochemical Assay (BPS Bioscience kit, chemiluminescence). Conditions: histone-coated plate, biotinilated NAD+, 25° C. for 60 min, luminescence, read-out: PARP 1 inhibition IC50. In outline:
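Human PARP1 (25–75 ng/well) with activated DNA was incubated with compound on histone-coated wells. Biotinylated NAD+ was added and the reaction ran 60 min at 25 °C. Ribosylation was detected by streptavidin-HRP chemiluminescence, % inhibition was normalised to enzyme-free and uninhibited controls, and IC50 was fitted from % inhibition versus concentration.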

T1 sequence (P09874 whole entry): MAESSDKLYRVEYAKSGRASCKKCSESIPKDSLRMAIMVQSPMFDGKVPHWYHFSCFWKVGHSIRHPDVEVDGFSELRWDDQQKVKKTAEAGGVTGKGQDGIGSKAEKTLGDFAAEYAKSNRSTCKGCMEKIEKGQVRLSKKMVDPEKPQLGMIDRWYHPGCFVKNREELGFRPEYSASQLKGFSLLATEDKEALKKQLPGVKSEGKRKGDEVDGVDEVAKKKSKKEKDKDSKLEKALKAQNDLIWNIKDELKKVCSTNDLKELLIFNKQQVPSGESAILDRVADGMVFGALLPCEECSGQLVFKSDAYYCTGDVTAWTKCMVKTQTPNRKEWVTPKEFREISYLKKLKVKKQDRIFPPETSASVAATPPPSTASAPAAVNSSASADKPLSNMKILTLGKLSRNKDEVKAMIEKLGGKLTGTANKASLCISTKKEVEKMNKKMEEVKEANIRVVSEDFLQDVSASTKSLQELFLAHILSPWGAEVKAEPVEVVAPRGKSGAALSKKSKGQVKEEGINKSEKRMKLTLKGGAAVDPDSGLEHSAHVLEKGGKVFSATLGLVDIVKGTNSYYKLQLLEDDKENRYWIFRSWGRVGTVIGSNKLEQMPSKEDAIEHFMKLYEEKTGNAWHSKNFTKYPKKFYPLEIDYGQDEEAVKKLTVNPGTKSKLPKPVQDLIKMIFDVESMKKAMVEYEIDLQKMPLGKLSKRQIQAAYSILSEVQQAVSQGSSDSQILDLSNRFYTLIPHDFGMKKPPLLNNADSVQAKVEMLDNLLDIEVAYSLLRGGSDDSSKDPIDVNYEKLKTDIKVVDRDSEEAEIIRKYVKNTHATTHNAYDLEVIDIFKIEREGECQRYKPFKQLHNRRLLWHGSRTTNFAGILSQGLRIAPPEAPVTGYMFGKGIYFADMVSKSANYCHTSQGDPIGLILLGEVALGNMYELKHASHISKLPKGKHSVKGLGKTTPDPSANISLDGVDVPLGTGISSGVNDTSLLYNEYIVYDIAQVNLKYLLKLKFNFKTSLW

For the molecule `CC1CN(c2ccc(F)cc2)CC(C)N1CCCc1nc2c(c(=O)[nH]1)CC1(CC2)CC1` (stereo not drawn) [Compound 26, 2′-(3-(4-(4-fluorophenyl)-2,6-dimethylpiperazin-1-yl)propyl)-7′,8′-dihydro-3′H-spiro[cyclopropane-1,6′-quinazolin]-4′(5′H)-one], the IC50 (usually the concentration needed to halve the response being measured) lay within 5000 to 500000 nM.

Take `Cc1ccc(N2CCN([C@H]3C=C(c4nc5c(c(=O)[nH]4)CC4(CC5)CC4)CC3)CC2)nc1` [Compound 124, (R)-2′-(3-(4-(5-methylpyridin-2-yl)piperazin-1-yl)cyclopent-1-en-1-yl)-7′,8′-dihydro-3′H-spiro[cyclopropane-1,6′-quinazolin]-4′(5′H)-one]: the half-maximal inhibitory concentration (IC50) fell in the range of 1 to 500 nM.

Take `O=c1[nH]c(CCCN2CCN(c3ccc(F)cc3)CC2)nc2c1CC1CC1C2` (stereo not drawn) [Compound 24, 2-(3-(4-(4-fluorophenyl)piperazin-1-yl)propyl)-5a,6,6a,7-tetrahydro-3H-cyclopropa[g]quinazolin-4(5H)-one]: the half-inhibitory concentration (IC50) lay within 1 to 500 nM.

`O=c1[nH]c(C2=C[C@H](N3CCN(c4ccc(Cl)cn4)CC3)CC2)nc2c1CC1(CC2)CC1` [Compound 57, (R)-2′-(3-(4-(5-chloropyridin-2-yl)piperazin-1-yl)cyclopent-1-en-1-yl)-7′,8′-dihydro-3′H-spiro[cyclopropane-1,6′-quinazolin]-4′(5′H)-one]: the IC50 lay in the range of 1 to 500 nM.

Turning to `CNC(=O)c1cnc(N2CCN([C@H]3C=C(c4nc5c(c(=O)[nH]4)CC4(CC5)CC4)CC3)CC2)c(Cl)c1` [Compound 103, (R)-5-chloro-N-methyl-6-(4-(3-(4′-oxo-4′,5′,7′,8′-tetrahydro-3′H-spiro[cyclopropane-1,6′-quinazolin]-2′-yl)cyclopent-2-en-1-yl)piperazin-1-yl)nicotinamide], the IC50 lay within 1 to 500 nM.

For `O=c1[nH]c([C@H]2CC[C@H](N3CCN(c4cccc(F)c4)CC3)C2)nc2c1CC1(CC2)CC1` [Compound 154, 2′-((1S,3S)-3-(4-(3-fluorophenyl)piperazin-1-yl)cyclopentyl)-7′,8′-dihydro-3′H-spiro[cyclopropane-1,6′-quinazolin]-4′(5′H)-one], the IC50 fell in the range of 1 to 500 nM.

With `O=c1[nH]c(CCCN2CCC(c3ccccc3)CC2)nc2c1CC1(CC2)CC1` [Compound 19, 2′-(3-(4-phenylpiperidin-1-yl)propyl)-7′,8′-dihydro-3′H-spiro[cyclopropane-1,6′-quinazolin]-4′(5′H)-one], the IC50 fell in the range of 1 to 500 nM.

Take `O=c1[nH]c(CCCN2CC3CCC(C2)N3c2ccc(F)cc2)nc2c1CC1(CC2)CC1` [Compound 8, 2′-(3-(8-(4-fluorophenyl)-3,8-diazabicyclo[3.2.1]octan-3-yl)propyl)-7′,8′-dihydro-3′H-spiro[cyclopropane-1,6′-quinazolin]-4′(5′H)-one]: the half-inhibitory concentration (IC50) lay in the range of 5000 to 500000 nM.

On to `Cc1ccc(N2CCN([C@H]3C=C(c4nc5c(c(=O)[nH]4)CC4(CC5)CC4)CC3)CC2)c(F)c1` [Compound 88, (R)-2′-(3-(4-(2-fluoro-4-methylphenyl)piperazin-1-yl)cyclopent-1-en-1-yl)-7′,8′-dihydro-3′H-spiro[cyclopropane-1,6′-quinazolin]-4′(5′H)-one], for which the IC50 lay in the range of 1 to 500 nM.

In the case of `O=c1[nH]c(C2=CC(N3C4CCC3CN(c3ccc(Cl)cc3)C4)CC2)nc2c1CC1(CC2)CC1` (stereo not drawn) [Compound 159, 2′-(3-(3-(4-chlorophenyl)-3,8-diazabicyclo[3.2.1]octan-8-yl)cyclopent-1-en-1-yl)-7′,8′-dihydro-3′H-spiro[cyclopropane-1,6′-quinazolin]-4′(5′H)-one], the IC50 lay within 5000 to 500000 nM.

Regarding `CNC(=O)c1ccc(N2CCN([C@H]3C=C(c4nc5c(c(=O)[nH]4)CC4(CC5)CC4)CC3)CC2)c(F)c1` [Compound 68, (R)-3-fluoro-N-methyl-4-(4-(3-(4′-oxo-4′,5′,7′,8′-tetrahydro-3′H-spiro[cyclopropane-1,6′-quinazolin]-2′-yl)cyclopent-2-en-1-yl)piperazin-1-yl)benzamide], the IC50 is 1 to 500 nM.

For the molecule `O=c1[nH]c(C2=C[C@H](N3CCC(c4ccc(Cl)cc4)CC3)CC2)nc2c1CC1(CC2)CC1` [Compound 56, (R)-2′-(3-(4-(4-chlorophenyl)piperidin-1-yl)cyclopent-1-en-1-yl)-7′,8′-dihydro-3′H-spiro[cyclopropane-1,6′-quinazolin]-4′(5′H)-one], the IC50 was in the range of 1 to 500 nM.

Turning to `O=c1[nH]c(C2=C[C@H](N3CCN(c4ccsc4)CC3)CC2)nc2c1CC1(CC2)CC1` [Compound 91, (R)-2′-(3-(4-(thiophen-3-yl)piperazin-1-yl)cyclopent-1-en-1-yl)-7′,8′-dihydro-3′H-spiro[cyclopropane-1,6′-quinazolin]-4′(5′H)-one], the IC50 lay in the range of 1 to 500 nM.

With `CNC(=O)c1ccc(N2CCN([C@@H]3C=C(c4nc5c(c(=O)[nH]4)CC4(CC5)CC4)CC3)CC2)cc1` [Compound 53, (S)—N-methyl-4-(4-(3-(4′-oxo-4′,5′,7′,8′-tetrahydro-3′H-spiro[cyclopropane-1,6′-quinazolin]-2′-yl)cyclopent-2-en-1-yl)piperazin-1-yl)benzamide], the IC50 was 1 to 500 nM.

Consider `Cc1cc(N2CCN([C@H]3C=C(c4nc5c(c(=O)[nH]4)CC4(CC5)CC4)CC3)CC2)ccc1F` [Compound 80, (R)-2′-(3-(4-(4-fluoro-3-methylphenyl)piperazin-1-yl)cyclopent-1-en-1-yl)-7′,8′-dihydro-3′H-spiro[cyclopropane-1,6′-quinazolin]-4′(5′H)-one], for which the IC50 fell in the range of 1 to 500 nM.

`O=c1[nH]c(C2=C[C@H](N3CCN(c4cc(F)ccc4F)CC3)CC2)nc2c1CC1(CC2)CC1` [Compound 106, (R)-2′-(3-(4-(2,5-difluorophenyl)piperazin-1-yl)cyclopent-1-en-1-yl)-7′,8′-dihydro-3′H-spiro[cyclopropane-1,6′-quinazolin]-4′(5′H)-one]: the IC50 fell in the range of 1 to 500 nM.

Consider `CC(C)(/C=C/c1nc2c(c(=O)[nH]1)CC1(CC2)CC1)N1CCN(c2ccc(F)cc2)CC1` [Compound 31, (E)-2′-(3-(4-(4-fluorophenyl)piperazin-1-yl)-3-methylbut-1-en-1-yl)-7′,8′-dihydro-3′H-spiro[cyclopropane-1,6′-quinazolin]-4′(5′H)-one], for which the IC50 lay in the range of 5000 to 500000 nM.

Take `O=c1[nH]c(C2=C[C@@H](N3CCN(c4ccc(Cl)cc4)CC3)CC2)nc2c1CCCC21CC1` [Compound 40, (S)-2′-(3-(4-(4-chlorophenyl)piperazin-1-yl)cyclopent-1-en-1-yl)-6′,7′-dihydro-3′H-spiro[cyclopropane-1,8′-quinazolin]-4′(5′H)-one]: the IC50 fell in the range of 1 to 500 nM.

For the molecule `CNC(=O)c1ccc(N2CCN([C@H]3C=C(c4nc5c(c(=O)[nH]4)CC4(CC5)CC4)CC3)CC2)nc1` [Compound 76, (R)—N-methyl-6-(4-(3-(4′-oxo-4′,5′,7′,8′-tetrahydro-3′H-spiro[cyclopropane-1,6′-quinazolin]-2′-yl)cyclopent-2-en-1-yl)piperazin-1-yl)nicotinamide], the IC50 lay within 1 to 500 nM.

In the case of `CC1(C)CN(c2ccc(F)cc2)CCN1[C@H]1C=C(c2nc3c(c(=O)[nH]2)CC2(CC3)CC2)CC1` [Compound 67, (R)-2′-(3-(4-(4-fluorophenyl)-2,2-dimethylpiperazin-1-yl)cyclopent-1-en-1-yl)-7′,8′-dihydro-3′H-spiro[cyclopropane-1,6′-quinazolin]-4′(5′H)-one], the 50% inhibitory concentration (IC50) is 5000 to 500000 nM.

In the case of `O=c1[nH]c(C2=C[C@H](N3CCN(c4ccc(F)cc4)CC3)CC2)nc2c1CC1(CC2)CC1` [Compound 42, (R)-2′-(3-(4-(4-fluorophenyl)piperazin-1-yl)cyclopent-1-en-1-yl)-7′,8′-dihydro-3′H-spiro[cyclopropane-1,6′-quinazolin]-4′(5′H)-one], the IC50 was in the range of 1 to 500 nM.

As to `O=c1[nH]c(C2=C[C@H](N3CCN(c4cncc(F)c4)CC3)CC2)nc2c1CC1(CC2)CC1` [Compound 142, (R)-2′-(3-(4-(5-fluoropyridin-3-yl)piperazin-1-yl)cyclopent-1-en-1-yl)-7′,8′-dihydro-3′H-spiro[cyclopropane-1,6′-quinazolin]-4′(5′H)-one], the IC50 fell in the range of 1 to 500 nM.

For the molecule `Cc1nc2ccc(N3CCN([C@H]4C=C(c5nc6c(c(=O)[nH]5)CC5(CC6)CC5)CC4)CC3)cc2s1` [Compound 81, (R)-2′-(3-(4-(2-methylbenzo[d]thiazol-6-yl)piperazin-1-yl)cyclopent-1-en-1-yl)-7′,8′-dihydro-3′H-spiro[cyclopropane-1,6′-quinazolin]-4′(5′H)-one], the IC50 was in the range of 501 to 5000 nM.

On to `O=c1[nH]c(C2=C[C@H](N3CCN(c4ncc(Cl)cc4F)CC3)CC2)nc2c1CC1(CC2)CC1` [Compound 146, (R)-2′-(3-(4-(5-chloro-3-fluoropyridin-2-yl)piperazin-1-yl)cyclopent-1-en-1-yl)-7′,8′-dihydro-3′H-spiro[cyclopropane-1,6′-quinazolin]-4′(5′H)-one], for which the IC50 is 1 to 500 nM.

For `Cc1cccc(N2CCN([C@H]3C=C(c4nc5c(c(=O)[nH]4)CC4(CC5)CC4)CC3)CC2)c1` [Compound 85, (R)-2′-(3-(4-(m-tolyl)piperazin-1-yl)cyclopent-1-en-1-yl)-7′,8′-dihydro-3′H-spiro[cyclopropane-1,6′-quinazolin]-4′(5′H)-one], the IC50 was in the range of 1 to 500 nM.

For the molecule `O=c1[nH]c(C2=C[C@H](N3CCN(c4ccc(Cl)cc4Cl)CC3)CC2)nc2c1CC1(CC2)CC1` [Compound 65, (R)-2′-(3-(4-(2,4-dichlorophenyl)piperazin-1-yl)cyclopent-1-en-1-yl)-7′,8′-dihydro-3′H-spiro[cyclopropane-1,6′-quinazolin]-4′(5′H)-one], the IC50 fell in the range of 1 to 500 nM.

On to `O=c1[nH]c(C2=C[C@H](N3CCN(c4nccs4)CC3)CC2)nc2c1CC1(CC2)CC1` [Compound 101, (R)-2′-(3-(4-(thiazol-2-yl)piperazin-1-yl)cyclopent-1-en-1-yl)-7′,8′-dihydro-3′H-spiro[cyclopropane-1,6′-quinazolin]-4′(5′H)-one], for which the half-maximal inhibitory concentration (IC50) was in the range of 1 to 500 nM.
